Data: patent publication US11001569B2, “6-membered heteroaromatic substituted cyanoindoline derivatives as NIK inhibitors” (Janssen Pharmaceutica NV, priority 2016, dated 2021)
“And” between values parts separate entries of the source, which are not always exact repeats. Equal values may be shown once. Read-outs that look alike come from different tables or passages of the source.

What was measured:
[1] = target: recombinant human NF-kappaB-inducing Kinase (NIK/MAP3K14) (Homo sapiens, UniProt Q99558); assay: Inhibition of auto-phosphorylation of recombinant human NIK/MAP3K14 activity (AlphaScreen); type: biochemical; details: 25 microM ATP, averaged over all measurements on all batches
Description: Pharmacological Part Biological assay A Inhibition of auto-phosphorylation of recombinant human NF-kappaB-inducing Kinase (NIK/MAP3K14) Activity (AlphaScreen®)
NIK/MAP3K14 auto-phosphorylation activity was measured using the AlphaScreen® (αscreen) format (Perkin Elmer). All compounds tested were dissolved in dimethyl sulfoxide (DMSO) and further dilutions were made in assay buffer. Final DMSO concentration was 1% (v/v) in assays. Assay buffer was 50 mM Tris pH 7.5 containing 1 mM EGTA (ethylene glycol tetraacetic acid), 1 mM DTT (dithiothreitol), 0.1 mM Na3VO4, 5 mM MgCl2, 0.01% Tween® 20. Assays were carried out in 384 well Alphaplates (Perkin Elmer). […] Incubations were initiated by addition of GST-tagged NIK/MAP3K14 enzyme, carried out for 1 h at 25° C. and terminated by addition of stop buffer containing anti-phospho-IKK Ser176/180 antibody. Protein A Acceptor and Glutathione-Donor beads were added before reading using an EnVision® Multilabel Plate Reader (Perkin Elmer). Signal obtained in the wells containing blank samples was subtracted from all other wells and IC50's were determined by fitting a sigmoidal curve to % inhibition of control versus Log10 compound concentration.

[2] = system: JJN-3 (NIK translocated) multiple myeloma cells; assay: Antiproliferative activity on JJN-3 multiple myeloma cells (CellTiter-Glo); type: cell-based, human; details: JJN-3 (NIK translocated) cells, 96 hr treatment, averaged values, read-out: JJN-3 Proliferation inhibition (IC50 (nM))
Description: (§1) Determination of Antiproliferative Activity on JJN-3 (NIK Translocated) and KMS12-BM (NIK WT) Multiple Myeloma Cells
(§2) All compounds tested were dissolved in DMSO and further dilutions were made in culture medium. Final DMSO concentration was 0.3% (v/v) in cell proliferation assays. Viability was assessed using CellTiter-Glo cell viability assay kit (Promega). […] Cells were routinely kept as suspension cells at 37° C. in a humidified 5% CO2 atmosphere. Cells were passaged at a seeding density of 0.2×10^6/ml twice a week. Cells were seeded in black tissue culture treated 96-well plates (Perkin Elmer). Densities used for plating ranged from 15000 (JJN3) to 20000 (KMS12BM) cells per well in a total volume of 135 μl medium. Drugs and/or solvents were added (15 μl) to a final volume of 150 μl. Following 96 hr of treatment, plates were removed from the incubator and allowed to equilibrate to room temperature for approx 10 min. 75 μl CellTiter-Glo reagent was added to each well that was then covered (Perkin Elmer Topseal) and shaken on plate shaker for 10 min. Luminescence was measured on a HTS Topcount (Perkin Elmer). […] For initial screening purposes, compounds were tested using a 9 point dilution curve (serial 1:3 dilutions). For each experiment, controls (containing no drug) and a blank incubation (containing cells read at the time of compound addition) were run in parallel. The blank value was subtracted from all control and sample values. For each sample, the mean value for cell growth (in relative light units) was expressed as a percentage of the mean value for cell growth of the control.

[3] = system: KMS12-BM (NIK WT) multiple myeloma cells; assay: Antiproliferative activity on KMS12-BM multiple myeloma cells (CellTiter-Glo); type: cell-based, human; details: Homo sapiens, KMS-12-BM, 96 hr treatment, averaged values, read-out: KMS-12 Proliferation inhibition (IC50 (nM))
Description: as §1, §2

recombinant human NF-kappaB-inducing Kinase (NIK/MAP3K14), sequence (Q99558 whole entry): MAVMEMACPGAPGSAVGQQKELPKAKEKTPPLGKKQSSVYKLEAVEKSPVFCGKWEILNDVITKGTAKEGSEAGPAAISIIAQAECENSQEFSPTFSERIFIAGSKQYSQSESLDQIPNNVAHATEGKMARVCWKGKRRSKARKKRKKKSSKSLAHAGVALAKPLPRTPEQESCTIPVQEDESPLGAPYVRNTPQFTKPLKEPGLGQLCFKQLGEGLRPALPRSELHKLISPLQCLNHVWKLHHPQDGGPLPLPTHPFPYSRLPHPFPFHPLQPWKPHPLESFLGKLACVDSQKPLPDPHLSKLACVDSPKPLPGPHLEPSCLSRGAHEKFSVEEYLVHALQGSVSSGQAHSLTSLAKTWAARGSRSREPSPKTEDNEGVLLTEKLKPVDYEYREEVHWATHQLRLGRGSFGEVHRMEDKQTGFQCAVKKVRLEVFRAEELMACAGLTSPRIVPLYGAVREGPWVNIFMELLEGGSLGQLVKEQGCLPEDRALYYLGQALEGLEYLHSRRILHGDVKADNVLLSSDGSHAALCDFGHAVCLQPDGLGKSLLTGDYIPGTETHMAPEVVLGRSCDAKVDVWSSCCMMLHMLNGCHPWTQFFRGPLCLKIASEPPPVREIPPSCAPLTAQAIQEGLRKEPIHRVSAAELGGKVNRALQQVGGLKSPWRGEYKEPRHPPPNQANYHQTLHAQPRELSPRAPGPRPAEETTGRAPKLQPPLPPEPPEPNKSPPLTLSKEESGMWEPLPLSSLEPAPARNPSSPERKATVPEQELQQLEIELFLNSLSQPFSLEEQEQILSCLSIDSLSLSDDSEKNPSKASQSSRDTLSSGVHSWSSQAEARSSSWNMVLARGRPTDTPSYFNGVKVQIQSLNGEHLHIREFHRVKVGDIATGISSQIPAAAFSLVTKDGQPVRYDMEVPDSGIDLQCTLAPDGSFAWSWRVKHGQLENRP

Row | SMILES | melting point | IC50 [1] | IC50 ([2]; Homo sapiens, JJN-3, 96 h) | IC50 ([3]; 96 h) | IC50 ([2]; Homo sapiens) | IC50 [3] | IC50 [2]
1 | COc1ncccc1Nc1nccc(-c2cc(C#N)c3c(c2)C(C)(CN(C)CCO)CN3)n1 (stereo not shown) [Compound 114] | 60 °C | 32.4 nM | 3550 nM | > 10000 nM |  |  | 
2 | Cc1cc(Nc2nccc(-c3cc(C#N)c4c(c3)C(C)(CO)CN4)n2)nc(C)n1 (stereo not shown) [Compound 127] | 333 °C | 4.5 nM | ~7080 nM | > 10000 nM |  |  | 
3 | COCCOc1nc(C2CC2)ccc1Nc1nccc(-c2cc(C#N)c3c(c2)[C@@](C)(CO)CN3)n1 [Compound 62] | 117 °C | 29.5 nM | 977 nM | > 10000 nM |  |  | 
4 | COCCOc1nc(C)ncc1Nc1nccc(-c2cc(C#N)c3c(c2)[C@@](C)(CO)CN3)n1 [Compound 136] | 231 °C | 18.2 nM | 2000 nM | > 10000 nM |  |  | 
5 | CC(C)OCCOc1ncc(Cl)cc1Nc1nccc(-c2cc(C#N)c3c(c2)[C@@](C)(CO)CN3)n1 [Compound 21] | 170 °C | 22.4 nM |  |  | 813 nM | > 10000 nM | 
6 | COc1ncc(Cl)cc1Nc1nccc(-c2cc(C#N)c3c(c2)C(C)(COCCN2CCCC2)CN3)n1 (stereo not shown) [Compound 120] | 152 °C | 79.4 nM | 631 nM | 1230 nM |  |  | 
7 | CC1(CO)CNc2c(C#N)cc(-c3nc(Nc4cc(Cl)cnc4OC4CCOCC4)ncc3F)cc21 (stereo not shown) [Compound 105] | 284 °C | 30.9 nM | 2240 nM | ~3720 nM |  |  | 
8 | COc1ncc(Cl)cc1Nc1ncc(F)c(-c2cc(C#N)c3c(c2)[C@@](C)(CO)CN3)n1 [Compound 104] | > 250 °C | 11.2 nM | 112 nM | > 10000 nM |  |  | 
9 | COCCOc1ccncc1Nc1nccc(-c2cc(C#N)c3c(c2)[C@@](C)(CO)CN3)n1 [Compound 47] | 215 °C | 13.2 nM | 1120 nM | > 10000 nM |  |  | 
10 | COc1ncc(Cl)cc1Nc1nccc(-c2cc(C#N)c3c(c2)[C@@](C)(CO)CN3)n1 [Compound 14] | 266 °C | 5.5 nM | 372 nM | > 10000 nM |  |  | 
11 | COc1ncccc1Nc1ncc(F)c(-c2cc(C#N)c3c(c2)[C@@](C)(CO)CN3)n1 [Compound 103] | > 250 °C | 1 nM | 120 nM | 1580 nM |  |  | 
12 | COc1ncccc1Nc1nccc(-c2cc(C#N)c3c(c2)[C@](C)(CO)CN3)n1 [Compound 7] | 245 °C | 15.5 nM | 1580 nM | > 10000 nM |  |  | 
13 | COCCNc1nc(OC)c(Nc2nccc(-c3cc(C#N)c4c(c3)[C@@](C)(CO)CN4)n2)cc1Cl [Compound 10] | 231 °C | 8.5 nM | 58 nM | > 10000 nM |  |  | 
14 | COCCOc1ncccc1Nc1nccc(-c2cc(C#N)c3c(c2)[C@](C)(CO)CN3)n1 [Compound 34] | 152 °C | 38 nM | 2880 nM | > 10000 nM |  |  | 
15 | COc1ncccc1Nc1nccc(-c2cc(C#N)c3c(c2)C(C)(CN2CCOCC2)CN3)n1 (stereo not shown) [Compound 113] | 95 °C | 34.7 nM | 5750 nM | > 10000 nM |  |  | 
16 | COc1cnccc1Nc1nccc(-c2cc(C#N)c3c(c2)[C@@](C)(CO)CN3)n1 [Compound 20] | > 260 °C | 0.9 nM | 1580 nM | > 10000 nM |  |  | 
17 | COc1ncccc1Nc1nccc(-c2cc(C#N)c3c(c2)C(C)(COCCNC(C)C)CN3)n1 (stereo not shown) [Compound 116] | 95 °C | 85.1 nM | 2040 nM | > 10000 nM |  |  | 

Row | SMILES | melting point | IC50 [1] | IC50 ([2]; Homo sapiens, JJN-3, 96 h) | IC50 ([3]; 96 h) | IC50 ([2]; Homo sapiens) | IC50 [3] | IC50 [2]
18 | COc1ccncc1Nc1nccc(-c2cc(C#N)c3c(c2)[C@@](C)(CO)CN3)n1 [Compound 37] | 210 °C | 1.8 nM | 3470 nM | > 10000 nM |  |  | 
19 | C[C@]1(CO)CNc2c(C#N)cc(-c3ccnc(Nc4cccnc4OCC4CC4)n3)cc21 [Compound 45] | 138 °C | 9.1 nM | 195 nM | > 10000 nM |  |  | 
20 | COCCNc1nc(OC(C)C)c(Nc2nccc(-c3cc(C#N)c4c(c3)C(C)(CO)CN4)n2)cc1Cl (stereo not shown) [Compound 13] | 125 °C | 28.8 nM | 447 nM | > 10000 nM |  |  | 
21 | COc1ncccc1Nc1nccc(-c2cc(C#N)c3c(c2)C(C)(CNCCS(C)(=O)=O)CN3)n1 (stereo not shown) [Compound 112] | 146 °C | 22.9 nM | 1820 nM | > 10000 nM |  |  | 
22 | COc1ncccc1Nc1nccc(-c2cc(C#N)c3c(c2)[C@@](C)(CO)CN3)n1 [Compound 6] | 241 °C | 2.4 nM | ~245 nM | > 10000 nM |  |  | 
23 | COc1ncccc1Nc1ncc(F)c(-c2cc(C#N)c3c(c2)C(C)(CO)CN3)n1 (stereo not shown) [Compound 101] | > 250 °C | 2.2 nM | 204 nM | 2460 nM |  |  | 
24 | CCOc1ncc(Cl)cc1Nc1nccc(-c2cc(C#N)c3c(c2)[C@@](C)(CO)CN3)n1 [Compound 35] | 220 °C | 15.9 nM | 794 nM | > 10000 nM |  |  | 
25 | C[C@]1(CO)CNc2c(C#N)cc(-c3ccnc(Nc4cccnc4OC4CCOCC4)n3)cc21 [Compound 23] | 213 °C | 4.9 nM | 708 nM | 7410 nM |  |  | 
26 | COCCNc1nc(OC)c(Nc2nccc(-c3cc(C#N)c4c(c3)[C@](C)(CO)CN4)n2)cc1Cl [Compound 11] | 236 °C | 10.5 nM | ~347 nM | > 10000 nM |  |  | 
27 | C[C@]1(CO)CNc2c(C#N)cc(-c3ccnc(Nc4cccnc4OC[C@H]4CCCO4)n3)cc21 [Compound 43] | 141 °C | 4 nM | 115 nM | > 10000 nM |  |  | 
28 | COCCNc1ccc(Nc2nccc(-c3cc(C#N)c4c(c3)C(C)(CO)CN4)n2)c(OC)n1 (stereo not shown) [Compound 12] | 120 °C | 12.9 nM | 589 nM | > 10000 nM |  |  | 
29 | COCCN(C)c1nc(OC)c(Nc2nccc(-c3cc(C#N)c4c(c3)[C@@](C)(CO)CN4)n2)cc1Cl [Compound 38] | 215 °C | 19.5 nM | 79 nM | > 10000 nM |  |  | 
30 | COc1ncc(Cl)cc1Nc1ncc(F)c(-c2cc(C#N)c3c(c2)C(C)(CO)CN3)n1 (stereo not shown) [Compound 102] | > 250 °C | 6.5 nM | 1580 nM | > 10000 nM |  |  | 
31 | Cc1ncc(Nc2nccc(-c3cc(C#N)c4c(c3)[C@@](C)(CO)CN4)n2)c(OCC2CCCO2)n1 (single isomer, unassigned) [Compound 137] | 200 °C | 16.2 nM |  | > 10000 nM |  |  | 525 nM
32 | CC(C)Oc1ncccc1Nc1nccc(-c2cc(C#N)c3c(c2)C(C)(CO)CN3)n1 (stereo not shown) [Compound 18] | 140 °C | 9.1 nM | 776 nM | > 10000 nM |  |  | 
33 | Cc1ncc(Cl)cc1Nc1nccc(-c2cc(C#N)c3c(c2)C(C)(CO)CN3)n1 (stereo not shown) [Compound 4] | 277 °C and 280 °C | 3.6 nM | 97 nM | ~7410 nM |  |  | 
34 | CC(C)Oc1ncc(Cl)cc1Nc1nccc(-c2cc(C#N)c3c(c2)[C@@](C)(CO)CN3)n1 [Compound 30] | 195 °C | 51.3 nM | 1260 nM | > 10000 nM |  |  | 
